According to ChEMBL document CHEMBL1156766, “Chloro-substituted 3-alkylamino-4H-1,2,4-benzothiadiazine 1,1-dioxides as ATP-sensitive potassium channel activators: impact of the position of the chlorine atom on the aromatic ring on activity and tissue selectivity” (J Med Chem, 2010):
Active and inactive are the calls of the source. No cut-off for these calls is given here.

Assays:
[1] = Inhibition of glucose-induced insulin secretion in rat pancreatic islets assessed as residual insulin release at 10 uM; type: functional, Pancreatic islet
[2] = Inhibition of glucose-induced insulin secretion in rat pancreatic islets assessed as residual insulin release at 1 uM; type: functional, Pancreatic islet
Aorta = assay: Myorelaxant activity in rat aortic ring assessed as inhibition of KCL-induced contraction; type: functional, tissue-based
[3] = Inhibition of glucose-induced insulin secretion in rat pancreatic islets assessed as residual insulin release at 50 uM; type: functional, Pancreatic islet
[4] = target: Sulfonylurea receptor 1, Kir6.2 (Homo sapiens, UniProt Q09428+Q14654); assay: Activation of human recombinant SUR1/Kir6.2 channel expressed in HEK293 cells assessed as increase in ionic current by whole cell patch clamp assay; type: cell-based
[5] = Inhibition of glucose-induced insulin secretion in rat pancreatic islets assessed as residual insulin release; type: functional, cell-based; details: Pancreatic islet
[6] = Ratio of EC50 for rat aortic ring to IC50 for rat pancreatic islets; type: functional, Aorta
[7] = Inhibition of glucose-induced insulin secretion in rat pancreatic islets assessed as residual insulin release at 0.1 uM; type: functional, Pancreatic islet
[8] = Dissociation constant, pKa of the compound; type: physicochemical
[9] = Increase in 86Rb outflow in perfused rat pancreatic islets at 10 uM in presence of extracellular calcium and glucose; type: functional, Pancreatic islet
[10] = target: Sulfonylurea receptor 1, Kir6.2 (Homo sapiens) (UniProt Q14654+Q09428); assay: Activation of human recombinant SUR1/Kir6.2 channel expressed in HEK293 cells assessed as increase in ionic current by whole cell patch clamp assay in presence of KATP channel blocker Tolbutamide; type: cell-based

Sulfonylurea receptor 1, Kir6.2, sequence (Q14654 whole entry): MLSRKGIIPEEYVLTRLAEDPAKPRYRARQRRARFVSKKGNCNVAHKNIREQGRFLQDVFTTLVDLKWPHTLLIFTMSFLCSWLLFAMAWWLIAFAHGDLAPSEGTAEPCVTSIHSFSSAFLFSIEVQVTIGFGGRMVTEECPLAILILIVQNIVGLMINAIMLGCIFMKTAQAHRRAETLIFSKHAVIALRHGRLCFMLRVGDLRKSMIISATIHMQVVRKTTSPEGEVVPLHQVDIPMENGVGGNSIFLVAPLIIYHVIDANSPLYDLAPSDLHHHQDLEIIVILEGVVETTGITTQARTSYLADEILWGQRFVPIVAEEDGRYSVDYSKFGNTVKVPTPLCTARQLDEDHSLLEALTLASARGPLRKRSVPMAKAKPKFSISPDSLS
Sulfonylurea receptor 1, Kir6.2, sequence (Q09428 whole entry): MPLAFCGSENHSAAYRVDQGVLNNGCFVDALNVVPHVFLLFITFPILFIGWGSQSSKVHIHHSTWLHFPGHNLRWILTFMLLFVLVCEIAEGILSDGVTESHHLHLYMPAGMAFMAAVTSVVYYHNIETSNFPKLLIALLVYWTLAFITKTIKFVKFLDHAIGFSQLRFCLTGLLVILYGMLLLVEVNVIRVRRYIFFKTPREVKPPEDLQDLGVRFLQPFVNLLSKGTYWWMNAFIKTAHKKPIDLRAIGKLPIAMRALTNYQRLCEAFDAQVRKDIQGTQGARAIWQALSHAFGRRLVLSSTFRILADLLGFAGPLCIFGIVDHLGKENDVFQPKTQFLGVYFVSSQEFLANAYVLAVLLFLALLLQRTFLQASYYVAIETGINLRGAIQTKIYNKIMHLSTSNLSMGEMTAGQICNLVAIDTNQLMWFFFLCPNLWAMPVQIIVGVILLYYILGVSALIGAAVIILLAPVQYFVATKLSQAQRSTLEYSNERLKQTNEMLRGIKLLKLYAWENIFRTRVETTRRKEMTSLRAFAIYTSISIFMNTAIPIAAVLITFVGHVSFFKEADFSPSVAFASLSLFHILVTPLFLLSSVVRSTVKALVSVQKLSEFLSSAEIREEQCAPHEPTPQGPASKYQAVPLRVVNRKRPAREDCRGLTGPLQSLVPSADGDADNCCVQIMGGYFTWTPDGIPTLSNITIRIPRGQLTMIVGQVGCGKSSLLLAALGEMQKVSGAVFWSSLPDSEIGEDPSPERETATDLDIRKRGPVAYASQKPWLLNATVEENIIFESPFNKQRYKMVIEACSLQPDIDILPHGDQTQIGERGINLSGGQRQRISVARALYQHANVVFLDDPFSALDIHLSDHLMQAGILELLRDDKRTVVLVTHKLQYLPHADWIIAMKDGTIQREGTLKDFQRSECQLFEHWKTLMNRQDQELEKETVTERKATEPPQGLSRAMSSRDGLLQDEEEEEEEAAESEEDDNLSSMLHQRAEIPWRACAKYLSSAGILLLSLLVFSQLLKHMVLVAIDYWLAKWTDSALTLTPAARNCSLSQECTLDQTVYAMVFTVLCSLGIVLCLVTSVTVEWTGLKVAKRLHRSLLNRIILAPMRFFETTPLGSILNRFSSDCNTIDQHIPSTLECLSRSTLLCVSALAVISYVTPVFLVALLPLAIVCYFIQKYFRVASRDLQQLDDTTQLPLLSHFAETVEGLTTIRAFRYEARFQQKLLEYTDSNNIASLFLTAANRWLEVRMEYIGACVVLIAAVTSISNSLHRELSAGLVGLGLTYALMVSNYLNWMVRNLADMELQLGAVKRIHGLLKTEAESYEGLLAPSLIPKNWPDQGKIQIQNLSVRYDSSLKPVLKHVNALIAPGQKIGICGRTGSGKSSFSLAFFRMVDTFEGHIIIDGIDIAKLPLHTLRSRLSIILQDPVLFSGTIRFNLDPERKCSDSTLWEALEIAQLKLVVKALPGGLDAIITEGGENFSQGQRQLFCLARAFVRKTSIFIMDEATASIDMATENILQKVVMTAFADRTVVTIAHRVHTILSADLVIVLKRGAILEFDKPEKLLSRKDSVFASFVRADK

Row | EC50 (Aorta) | Structure (SMILES) | Activity [1] | Activity [2] | Activity [3] | other results
1 | > 30 µM | O=S1(=O)N=C(NC2CCC2)Nc2cccc(Cl)c21 | 30.23% | 77.56% | – | –
2 | 180 µM | CCCNC1=NS(=O)(=O)c2cccc(Cl)c2N1 | – | – | 94.69% | –
3 | – | O=S1(=O)NC(NC2CCC2)=Nc2cc(Cl)ccc21 | – | – | – | EC50 [4]: 0.08 µM
4 | 126 µM | O=S1(=O)N=C(NC2CCC2)Nc2c(Cl)cccc21 | – | – | 102.55% | –
5 | – | O=S1(=O)N=C(NC2CCC2)Nc2ccc(Cl)cc21 | 6.44% | 60.19% | 8.11% | IC50 [5]: 0.48 µM; Ratio EC50 [6]: 75
6 | 73.2 µM | CCCNC1=NS(=O)(=O)c2ccc(Cl)cc2N1 | 14.45% | 71.5% | 8.74% | –
7 | – | CCNC1=NS(=O)(=O)c2cc(Cl)ccc2N1 | 10.65% | 40.79% | 2.09% | –
8 | 53.4 µM | CC(C)NC1=NS(=O)(=O)c2ccc(Cl)cc2N1 | 7.51% | 13.2% | 6.38% | Activity [7]: 76.72%; IC50 [5]: 0.23 µM; Ratio EC50 [6]: 230; pKa [8]: 9.35
9 | > 300 µM | CCNC1=NS(=O)(=O)c2c(Cl)cccc2N1 | 37.55% | 95.72% | – | –
10 | – | CCCNC1=NS(=O)(=O)c2cc(Cl)ccc2N1 | 14.24% | 83.41% | 3.56% | –
11 | 90.4 µM | CCNC1=NS(=O)(=O)c2cccc(Cl)c2N1 | – | – | 80.4% | –
12 | > 300 µM | O=S1(=O)N=C(NC2CCC2)Nc2cc(Cl)ccc21 | 11.27% | 66.17% | 9.58% | Activity [9]: 1.45 %/min; Activity [10]: inactive
13 | 190 µM | O=S1(=O)N=C(NC2CC2)Nc2ccc(Cl)cc21 | 26.56% | 84% | 5.82% | –
14 | – | CC(C)NC1=NS(=O)(=O)c2cc(Cl)c(Cl)cc2N1 | 6.29% | 13.19% | 4.96% | –
15 | 156 µM | O=S1(=O)N=C(NC2CC2)Nc2cc(Cl)ccc21 | 12.74% | 93.02% | 7.97% | –
16 | 54.8 µM | CCNC1=NS(=O)(=O)c2ccc(Cl)cc2N1 | 9.55% | 21.7% | – | –
17 | – | CC(C)NC1=NS(=O)(=O)c2cc(Cl)ccc2N1 | 4.84% | 36.19% | 5.66% | Activity [7]: 90.41%
18 | > 300 µM | CC(C)NC1=NS(=O)(=O)c2cccc(Cl)c2N1 | – | – | 96.88% | pKa [8]: 9.11
